# Reference: PubChem BioAssay AID1918957 (Molecular Pharmacology Branch, DTP, NCI, 2023)
# Values joined by “and” are separate entries in the source; they are usually repeats but may differ in a detail not shown here. Equal values may be shown once.
# Tested on: NCI-H1876 complex spheroid viability
# Test: Anticancer human tumor NCI-H1876 cell line growth inhibition [LSD1];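 note: spheroids exposed to compounds for one week before readout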;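 for viability, T/C: 100% = DMSO vehicle-treated spheroids so lower means fewer viable cells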
# Details: for viability, T/C: stronger effect = lower value
# How it was run: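 Multicellular complex spheroids of tumor cells with human endothelial cells (HUVEC) and mesenchymal stem cells; the LSD1 inhibitor iadademstat was combined with standard-of-care or investigational agents. Top concentration at or near clinical Cmax, half-log dilutions; final DMSO ≤0.25%.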
# [1] = curve of first compound, second compound 0.1 µM
# [2] = curve of first compound, second compound 0.316 µM
# [3] = curve of first compound, second compound 1 µM
# [4] = curve of first compound, second compound 3.16 µM
# [5] = curve of first compound, second compound 10 µM
# [6] = second compound 0.1 µM, first compound 0.0316 µM
# [7] = second compound 0.1 µM, first compound 0.1 µM
# [8] = second compound 0.316 µM, first compound 0.0316 µM
# [9] = second compound 0.316 µM, first compound 0.1 µM
# [10] = second compound 1 µM, first compound 0.0316 µM
# [11] = second compound 1 µM, first compound 0.1 µM
# [12] = second compound 3.16 µM, first compound 0.0316 µM
# [13] = second compound 3.16 µM, first compound 0.1 µM
# [14] = second compound 10 µM, first compound 0.0316 µM
# [15] = second compound 10 µM, first compound 0.1 µM
# [16] = second compound 0.1 µM, first compound 0.00949 µM
# [17] = second compound 0.1 µM, first compound 0.03 µM
# [18] = second compound 0.1 µM, first compound 0.0949 µM
# [19] = second compound 0.1 µM, first compound 0.3 µM
# [20] = second compound 0.316 µM, first compound 0.00949 µM
# [21] = second compound 0.316 µM, first compound 0.03 µM
# [22] = second compound 0.316 µM, first compound 0.0949 µM
# [23] = second compound 0.316 µM, first compound 0.3 µM
# [24] = second compound 1 µM, first compound 0.00949 µM
# [25] = second compound 1 µM, first compound 0.03 µM
# [26] = second compound 1 µM, first compound 0.0949 µM
# [27] = second compound 1 µM, first compound 0.3 µM
# [28] = second compound 3.16 µM, first compound 0.00949 µM
# [29] = second compound 3.16 µM, first compound 0.03 µM
# [30] = second compound 3.16 µM, first compound 0.0949 µM
# [31] = second compound 3.16 µM, first compound 0.3 µM
# [32] = second compound 10 µM, first compound 0.00949 µM
# [33] = second compound 10 µM, first compound 0.03 µM
# [34] = second compound 10 µM, first compound 0.0949 µM
# [35] = second compound 10 µM, first compound 0.3 µM
smiles,measurement,setting,value
CC(C)CC(NC(=O)CNC(=O)c1cc(Cl)ccc1Cl)B1OC(=O)CC(CC(=O)O)(C(=O)O)O1 (centres undefined) + NC1CC1c1ccc(-c2cccc(O)c2)cc1,IC50,[1],0.0077 µM
same,IC50,[2],0.00744 µM
same,IC50,[3],0.00744 µM
same,IC50,[4],0.00735 µM
same,IC50,[5],0.00663 µM
same,"viability, T/C","second compound 0.1 µM, first compound 0.000316 µM",98.9%
same,"viability, T/C","second compound 0.1 µM, first compound 0.001 µM",103%
same,"viability, T/C","second compound 0.1 µM, first compound 0.00316 µM",105%
same,"viability, T/C","second compound 0.1 µM, first compound 0.01 µM",34.6%
same,"viability, T/C",[6],1.61%
same,"viability, T/C",[7],0.3%
same,"viability, T/C","second compound 0.316 µM, first compound 0.000316 µM",108%
same,"viability, T/C","second compound 0.316 µM, first compound 0.001 µM",101%
same,"viability, T/C","second compound 0.316 µM, first compound 0.00316 µM",97.3%
same,"viability, T/C","second compound 0.316 µM, first compound 0.01 µM",33.7%
same,"viability, T/C",[8],1.47%
same,"viability, T/C",[9],0.31%
same,"viability, T/C","second compound 1 µM, first compound 0.000316 µM",105%
same,"viability, T/C","second compound 1 µM, first compound 0.001 µM",103%
same,"viability, T/C","second compound 1 µM, first compound 0.00316 µM",102%
same,"viability, T/C","second compound 1 µM, first compound 0.01 µM",32.1%
same,"viability, T/C",[10],1.86%
same,"viability, T/C",[11],0.31%
same,"viability, T/C","second compound 3.16 µM, first compound 0.000316 µM",110%
same,"viability, T/C","second compound 3.16 µM, first compound 0.001 µM",106%
same,"viability, T/C","second compound 3.16 µM, first compound 0.00316 µM",98.4%
same,"viability, T/C","second compound 3.16 µM, first compound 0.01 µM",32.5%
same,"viability, T/C",[12],1.08%
same,"viability, T/C",[13],0.3%
same,"viability, T/C","second compound 10 µM, first compound 0.000316 µM",103%
same,"viability, T/C","second compound 10 µM, first compound 0.001 µM",102%
same,"viability, T/C","second compound 10 µM, first compound 0.00316 µM",87%
same,"viability, T/C","second compound 10 µM, first compound 0.01 µM",29.6%
same,"viability, T/C",[14],0.75%
same,"viability, T/C",[15],0.39%
CC1COCCN1c1cc(C2(S(C)(=N)=O)CC2)nc(-c2ccnc3[nH]ccc23)n1 (centres undefined) + NC1CC1c1ccc(-c2cccc(O)c2)cc1,IC50,[1],6.86 µM
same,IC50,[2],6.54 µM
same,IC50,[3],6.88 µM
same,IC50,[4],6.24 µM
same,IC50,[5],5.61 µM
same,"viability, T/C",[6],110%
same,"viability, T/C",[7],114%
same,"viability, T/C","second compound 0.1 µM, first compound 0.316 µM",112%
same,"viability, T/C","second compound 0.1 µM, first compound 1 µM",111%
same,"viability, T/C","second compound 0.1 µM, first compound 3.16 µM",94.4%
same,"viability, T/C","second compound 0.1 µM, first compound 10 µM",28.4%
same,"viability, T/C",[8],119%
same,"viability, T/C",[9],111%
same,"viability, T/C","second compound 0.316 µM, first compound 0.316 µM",113%
same,"viability, T/C","second compound 0.316 µM, first compound 1 µM",118%
same,"viability, T/C","second compound 0.316 µM, first compound 3.16 µM",88.5%
same,"viability, T/C","second compound 0.316 µM, first compound 10 µM",27.5%
same,"viability, T/C",[10],124%
same,"viability, T/C",[11],119%
same,"viability, T/C","second compound 1 µM, first compound 0.316 µM",118%
same,"viability, T/C","second compound 1 µM, first compound 1 µM",111%
same,"viability, T/C","second compound 1 µM, first compound 3.16 µM",96.1%
same,"viability, T/C","second compound 1 µM, first compound 10 µM",28%
same,"viability, T/C",[12],114%
same,"viability, T/C",[13],126%
same,"viability, T/C","second compound 3.16 µM, first compound 0.316 µM",120%
same,"viability, T/C","second compound 3.16 µM, first compound 1 µM",111%
same,"viability, T/C","second compound 3.16 µM, first compound 3.16 µM",78.4%
same,"viability, T/C","second compound 3.16 µM, first compound 10 µM",30.3%
same,"viability, T/C",[14],112%
same,"viability, T/C",[15],112%
same,"viability, T/C","second compound 10 µM, first compound 0.316 µM",114%
same,"viability, T/C","second compound 10 µM, first compound 1 µM",99.8%
same,"viability, T/C","second compound 10 µM, first compound 3.16 µM",70.8%
same,"viability, T/C","second compound 10 µM, first compound 10 µM",29.4%
COc1cc(Nc2ncc3c(n2)-c2ccc(Cl)cc2C(c2c(F)cccc2OC)=NC3)ccc1C(=O)O,"viability, T/C",compound 0.00316 µM,66.5% and 69.5%
same,"viability, T/C",compound 0.01 µM,54% and 64.2%
same,"viability, T/C",compound 0.0316 µM,45.4% and 48.2%
same,"viability, T/C",compound 0.1 µM,42.4% and 38.4%
same,"viability, T/C",compound 0.316 µM,37.3% and 31.5%
same,"viability, T/C",compound 1 µM,28.3% and 19.5%
same,IC50,curve of compound,0.0225 µM and 0.0332 µM
CCN(c1cc(-c2ccc(CN3CCOCC3)cc2)cc(C(=O)NCc2c(C)cc(C)[nH]c2=O)c1C)C1CCOCC1 + NC1CC1c1ccc(-c2cccc(O)c2)cc1,IC50,[1],> 3 µM
same,IC50,[2],> 3 µM
same,IC50,[3],> 3 µM
same,IC50,[4],> 3 µM
same,IC50,[5],> 3 µM
same,"viability, T/C",[16],110%
same,"viability, T/C",[17],109%
same,"viability, T/C",[18],110%
same,"viability, T/C",[19],99.6%
same,"viability, T/C","second compound 0.1 µM, first compound 0.949 µM",86.6%
same,"viability, T/C","second compound 0.1 µM, first compound 3 µM",54.8%
same,"viability, T/C",[20],102%
same,"viability, T/C",[21],106%
same,"viability, T/C",[22],102%
same,"viability, T/C",[23],94.1%
same,"viability, T/C","second compound 0.316 µM, first compound 0.949 µM",77.3%
same,"viability, T/C","second compound 0.316 µM, first compound 3 µM",54.1%
same,"viability, T/C",[24],111%
same,"viability, T/C",[25],112%
same,"viability, T/C",[26],104%
same,"viability, T/C",[27],102%
same,"viability, T/C","second compound 1 µM, first compound 0.949 µM",88.2%
same,"viability, T/C","second compound 1 µM, first compound 3 µM",60%
same,"viability, T/C",[28],109%
same,"viability, T/C",[29],108%
same,"viability, T/C",[30],107%
same,"viability, T/C",[31],97.5%
same,"viability, T/C","second compound 3.16 µM, first compound 0.949 µM",83.8%
same,"viability, T/C","second compound 3.16 µM, first compound 3 µM",57.8%
same,"viability, T/C",[32],106%
same,"viability, T/C",[33],99.9%
same,"viability, T/C",[34],111%
same,"viability, T/C",[35],100%
same,"viability, T/C","second compound 10 µM, first compound 0.949 µM",79.9%
same,"viability, T/C","second compound 10 µM, first compound 3 µM",55.3%
Nc1ncn(C2CC(O)C(CO)S2)c(=O)n1 (centres undefined) + NC1CC1c1ccc(-c2cccc(O)c2)cc1,IC50,[1],> 0.3 µM
same,IC50,[2],> 0.3 µM
same,IC50,[3],> 0.3 µM
same,IC50,[4],0.289 µM
same,IC50,[5],> 0.3 µM
same,"viability, T/C","second compound 0.1 µM, first compound 0.000949 µM",115%
same,"viability, T/C","second compound 0.1 µM, first compound 0.003 µM",111%
same,"viability, T/C",[16],99.4%
same,"viability, T/C",[17],91.2%
same,"viability, T/C",[18],71%
same,"viability, T/C",[19],51.3%
same,"viability, T/C","second compound 0.316 µM, first compound 0.000949 µM",120%
same,"viability, T/C","second compound 0.316 µM, first compound 0.003 µM",110%
same,"viability, T/C",[20],99.7%
same,"viability, T/C",[21],86.4%
same,"viability, T/C",[22],73.1%
same,"viability, T/C",[23],54.4%
same,"viability, T/C","second compound 1 µM, first compound 0.000949 µM",110%
same,"viability, T/C","second compound 1 µM, first compound 0.003 µM",106%
same,"viability, T/C",[24],103%
same,"viability, T/C",[25],90.1%
same,"viability, T/C",[26],79.4%
same,"viability, T/C",[27],54.8%
same,"viability, T/C","second compound 3.16 µM, first compound 0.000949 µM",106%
same,"viability, T/C","second compound 3.16 µM, first compound 0.003 µM",103%
same,"viability, T/C",[28],104%
same,"viability, T/C",[29],89%
same,"viability, T/C",[30],72.1%
same,"viability, T/C",[31],49.1%
same,"viability, T/C","second compound 10 µM, first compound 0.000949 µM",107%
same,"viability, T/C","second compound 10 µM, first compound 0.003 µM",100%
same,"viability, T/C",[32],97.2%
same,"viability, T/C",[33],96.3%
same,"viability, T/C",[34],69.2%
same,"viability, T/C",[35],50.4%
CCc1c2c(nc3ccc(O)cc13)-c1cc3c(c(=O)n1C2)COC(=O)[C@]3(O)CC,"viability, T/C",compound 0.000949 µM,8.16% and 5.21%
same,"viability, T/C",compound 0.003 µM,6.7% and 3.21%
same,"viability, T/C",compound 0.00949 µM,3.77% and 1.73%
same,"viability, T/C",compound 0.03 µM,0.82% and 0.45%
same,"viability, T/C",compound 0.0949 µM,0.56% and 0.42%
same,"viability, T/C",compound 0.3 µM,0.51% and 0.41%
same,IC50,curve of compound,< 0.000949 µM
